Experimental data reported in patent publication US6461997B1, “Triazole sulfones having herbicidal activity” (Monsanto Technology LLC, priority 1999, dated 2002).

How the values were obtained:
[1] = system: DATST (jimsonweed); test: Pre-emergence herbicidal activity, warm season; format: in vivo, Datura stramonium; conditions: GR80 = lowest tested rate (300, 100, 30, 10 g/ha) with 80% or greater inhibition; approx. 14 days after treating; 30/21° C.
Description: (§1) Tables 5 to 8 summarize results of tests conducted as described below to determine the pre-emergence herbicidal activity, in the form of a GR80 value, of illustrative compounds of this invention. […] Compounds of the invention were typically applied at rates of 300, 100, 30, and 10 g/ha. Where herbicidal activity was evident but 80% inhibition was not achieved at the highest rate tested, an asterisk (*) is shown in the following tables.
(§2) The pre-emergence tests were conducted by the following procedure. Topsoil was sieved to pass through a 1.27 cm screen. Fertilizer was added to the topsoil and the mixture was then sterilized by heating. The topsoil mixture was placed in a pot and compacted to a depth of 1.0 to 1.25 cm from the top of the pot. Seeds of each of several monocotyledonous and dicotyledonous annual plant species were placed on top of the soil. Additional soil was subsequently placed over the seeds to level-fill the pot. A known amount of each test compound dissolved or suspended in an appropriate organic solvent was diluted with a 50:50 mix of acetone and water and applied to the surface of the soil. After treatment the plants were placed in a greenhouse where they received 0.64 cm of overhead irrigation. All subsequent watering consisted of a light overhead mist and/or subirrigation as needed for germination and growth. Tables 5 and 6 below relate to warm season plant species which were placed after pre-emergence treatment in a greenhouse with a 30/21° C. day/night temperature regime. Tables 7 and 8 below relates to cool season plant species placed after pre-emergence treatment in a greenhouse or growth chamber with an 18/13° C. day/night temperature regime.
(§3) Approximately 14 days after planting and treating, the plants were observed and herbicidal efficacy recorded as percent inhibition by comparison with untreated plants.
(§4) The plant species usually regarded as weeds which were utilized in the tests are identified in the tables below according to the following legend, in which “d” indicates a dicotyledonous species and “m” a monocotyledonous species. All monocotyledonous species included in the tests herein are grasses.

[2] = system: PANMI (wild proso millet); test: Pre-emergence herbicidal activity, warm season; format: in vivo, Panicum miliaceum; conditions: GR80 = lowest tested rate (300, 100, 30, 10 g/ha) with 80% or greater inhibition; approx. 14 days after treating; 30/21° C.
In short: (§5)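 Read-out: GR80, derived from percent growth inhibition relative to untreated plants at roughly 14 days after planting and treatment. Compounds went onto the surface of freshly seeded soil at 10–300 g/ha. Day/night regimes were 30/21 °C for millet and crabgrass, 18/13 °C for blackgrass and buckwheat.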

[3] = system: GALAP (catchweed bedstraw); test: Pre-emergence herbicidal activity, cool season; format: in vivo, Galium aparine; conditions: lowest tested rate with 80% or greater inhibition; rates 300, 100, 30, 10 g/ha; about 14 days
In short: (§6)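 Seeds sown in sterilised fertilised topsoil received surface-applied compound in 50:50 acetone/water, typically at 300, 100, 30 and 10 g/ha, then greenhouse-grown at 30/21° C (warm-season species) or 18/13° C (cool-season species). Percent inhibition versus untreated plants was scored at about 14 days, giving GR80; an asterisk marks activity short of 80% at the top rate.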

[4] = system: POLCO (wild buckwheat); test: Pre-emergence herbicidal activity, cool season; format: in vivo, Polygonum convolvulus; conditions: lowest tested rate with 80% or greater inhibition; rates 300, 100, 30, 10 g/ha; about 14 days
In short: as §5

[5] = system: SINAR (wild mustard); test: Pre-emergence herbicidal activity, cool season; format: in vivo, Sinapis arvensis; conditions: lowest tested rate with 80% or greater inhibition; rates 300, 100, 30, 10 g/ha; about 14 days
In short: as §6

[6] = system: VERPE (creeping speedwell); test: Pre-emergence herbicidal activity, cool season; format: in vivo, Veronica persicaria; conditions: lowest tested rate with 80% or greater inhibition; rates 300, 100, 30, 10 g/ha; about 14 days
In short: as §6

[7] = system: SASKR (russian thistle); test: Pre-emergence herbicidal activity, cool season; format: in vivo, Salsola kali; conditions: lowest tested rate with 80% or greater inhibition; rates 300, 100, 30, 10 g/ha; about 14 days
In short: as §6

[8] = system: STEME (common chickweed); test: Pre-emergence herbicidal activity, cool season; format: in vivo, Stellaria media; conditions: lowest tested rate with 80% or greater inhibition; rates 300, 100, 30, 10 g/ha; about 14 days
In short: as §6

[9] = system: LAMPU (purple deadnettle); test: Pre-emergence herbicidal activity, cool season; format: in vivo, Lamium purpureum; conditions: lowest tested rate with 80% or greater inhibition; rates 300, 100, 30, 10 g/ha; about 14 days
In short: as §6

[10] = system: AGSST (creeping bentgrass); test: Pre-emergence herbicidal activity, cool season; format: in vivo, Agrostis stolonifera; conditions: GR80 = lowest tested rate (300, 100, 30, 10 g/ha) with 80% or greater inhibition; approx. 14 days after treating; 18/13° C.
In short: as §6

[11] = system: SETVI (green foxtail); test: Pre-emergence herbicidal activity, cool season; format: in vivo, Setaria viridis; conditions: GR80 = lowest tested rate (300, 100, 30, 10 g/ha) with 80% or greater inhibition; approx. 14 days after treating; 18/13° C.
In short: as §6

[12] = system: CHEAL (common lambsquarters); test: Pre-emergence herbicidal activity, warm season; format: in vivo, Chenopodium album; conditions: GR80 = lowest tested rate (300, 100, 30, 10 g/ha) with 80% or greater inhibition; approx. 14 days after treating; 30/21° C.
Description: as §1, §2, §3, §4

Row | Compound | Pre-emergence activity (GR80) DATST [1] [g/ha] | Pre-emergence activity (GR80) PANMI [2] [g/ha] | Pre-emergence activity GR80, GALAP [3] | Pre-emergence activity GR80, POLCO [4] | Pre-emergence activity GR80, SINAR [5] | Pre-emergence activity GR80, VERPE [6] | Pre-emergence activity GR80, SASKR [7] | Pre-emergence activity GR80, STEME [8] | Pre-emergence activity GR80, LAMPU [9] | Pre-emergence activity (GR80) AGSST [10] [g/ha] | Pre-emergence activity (GR80) SETVI [11] [g/ha] | Pre-emergence activity (GR80) CHEAL [12] [g/ha]
1 | CN(Cc1ccccc1)C(=O)n1cnc(S(=O)(=O)C(F)F)n1 [Example 33] | 300 | 300 | [empty] | [empty] | [empty] | 300 g/ha | 300 g/ha | 100 g/ha | 30 g/ha | 300 |  | 
2 | CCSC(F)(F)S(=O)(=O)c1ncn(C(=O)N2CCOCC2)n1 [Example 48] | 300 |  | 300 g/ha | 300 g/ha | [empty] | [empty] | [empty] | 300 g/ha | [empty] |  |  | 
3 | CCSC(F)(F)S(=O)(=O)c1ncn(C(=O)N(C)Cc2ccccc2)n1 [Example 56] | 300 |  | [empty] | [empty] | [empty] | [empty] | [empty] | [empty] | [empty] | 100 | 100 | 
4 | CCSC(F)(F)S(=O)(=O)c1ncn(C(=S)N(CC)CC)n1 [Example 58] | 300 |  | 300 g/ha | 300 g/ha | [empty] | 300 g/ha | 300 g/ha | 300 g/ha | 300 g/ha |  | 300 | 300
